Test results: publication PMC6270420, “Antibacterial Activity of Salicylanilide 4-(Trifluoromethyl)benzoates” (Molecules, 2013)
Converted amounts (≈) assume the structure as drawn. Read-outs that look alike come from different tables or passages of the source.

Legend:
Type in all cases: cell-based
[1] = test system: Mtb. 9449/2006; experiment: microbe, parasite or virus in culture; conditions: Mycobacterium tuberculosis, read-out: MIC Mtb. 9449/2006
[2] = test system: M. kansasii 6509/96 (clinically isolated strain); experiment: Antimycobacterial MIC micromethod; conditions: Mycobacterium kansasii, read-out: MIC M. kansasii 6509/96
[3] = test system: Mtb. Praha 1; experiment: microbe, parasite or virus in culture; conditions: Mycobacterium tuberculosis, read-out: MIC Mtb. Praha 1
[4] = test system: Mtb. 234/2005; experiment: microbe, parasite or virus in culture; conditions: Mycobacterium tuberculosis, read-out: MIC Mtb. 234/2005
[5] = test system: Mycobacterium avium 330/88; experiment: Antimycobacterial MIC micromethod
[6] = test system: Gram-positive cocci including MRSA; experiment: Antibacterial microdilution, summary for Gram-positive cocci; conditions: Staphylococcus aureus, read-out: MICs against Gram-positive cocci
Procedure: The in vitro antibacterial activity was assayed against eight Gram-positive and Gram-negative strains: Staphylococcus aureus CCM 4516/08, methicillin-resistant Staphylococcus aureus H 5996/08 (MRSA), Staphylococcus epidermidis H 6966/08, Enterococcus sp. J 14365/08; Escherichia coli CCM 4517, Klebsiella pneumoniae D 11750/08, ESBL-positive Klebsiella pneumoniae J 14368/08, and Pseudomonas aeruginosa CCM 1961.
The microdilution broth method modified according to standard M07-A07 in Mueller-Hinton broth (HiMedia Laboratories, Mumbai, India) adjusted to pH 7.4 (±0.2) was used. The tested compounds were dissolved in DMSO to the final concentrations ranging from […]. Benzylpenicillin (penicillin G) was used as a comparative drug. Bacterial inoculum in sterile water was prepared to match 0.5 McFarland scale ([…]). The minimum inhibitory concentrations were assayed as 90% (IC90) or higher reduction of growth when compared to the control. The determination of results was performed visually and spectrophotometrically (at 540 nm). The values of MICs were determined after 24 and 48 h of incubation in the darkness at 35 °C (±0.1) in a humid atmosphere.

[7] = test system: Mycobacterium tuberculosis 331/88 (H37Rv); experiment: Antimycobacterial MIC micromethod, Šula's medium
[8] = test system: Mtb. 53/2009; experiment: microbe, parasite or virus in culture; conditions: Mycobacterium tuberculosis, read-out: MIC Mtb. 53/2009
[9] = test system: Mtb. Praha 131 (XDR-TB); experiment: microbe, parasite or virus in culture; conditions: Mycobacterium tuberculosis, read-out: MIC Mtb. Praha 131 (XDR-TB)
[10] = test system: Mycobacterium tuberculosis, M. avium and M. kansasii; experiment: Antimycobacterial MIC, summary over all mycobacterial strains; conditions: range over all strains and times; read-out: MICs against all mycobacterial strains
[11] = 336 h, 14 d, read-out: MIC Mtb. 331/88
[12] = 504 h, 21 d, read-out: MIC Mtb. 331/88
[13] = time not stated, read-out: MIC against M. tuberculosis

Compound | MIC ([1]; 336 h) [µM] | MIC ([1]; 504 h) [µM] | MIC ([2]; 168 h, 7 d) [µM] | MIC ([2]; 336 h, 14 d) [µM] | MIC ([2]; 504 h, 21 d) [µM] | MIC ([3]; 336 h) [µM] | MIC ([3]; 504 h) [µM] | MIC ([4]; 336 h) [µM] | MIC ([4]; 504 h) [µM] | MIC ([5]; 330/88, 336 h, 14 d) [µM] | MIC ([5]; 330/88, 504 h, 21 d) [µM] | MIC [6] [µM] | MIC [7, 11] [µM] | MIC [7, 12] [µM] | MIC [7, 13] [µM] | MIC ([8]; 336 h) [µM] | MIC ([8]; 504 h) [µM] | MIC ([9]; 336 h) [µM] | MIC ([9]; 504 h) [µM] | MIC [10] [µM]
O=C(Oc1ccc(Cl)cc1C(=O)Nc1ccc(Cl)c(Cl)c1)c1ccc(C(F)(F)F)cc1 [1e] | 2 (≈ 0.977 µg/mL) | 2 (≈ 0.977 µg/mL) | 1 (≈ 0.489 µg/mL) | 2 (≈ 0.977 µg/mL) | 4 (≈ 1.95 µg/mL) | 1 (≈ 0.489 µg/mL) | 2 (≈ 0.977 µg/mL) | 1 (≈ 0.489 µg/mL) | 2 (≈ 0.977 µg/mL) | 4 (≈ 1.95 µg/mL) | 4 (≈ 1.95 µg/mL) | < 1 | 1 (≈ 0.489 µg/mL) | 1 (≈ 0.489 µg/mL) | 1 (≈ 0.489 µg/mL) | 2 (≈ 0.977 µg/mL) | 4 (≈ 1.95 µg/mL) | 2 (≈ 0.977 µg/mL) | 2 (≈ 0.977 µg/mL) | –
O=C(Oc1cc(Cl)ccc1C(=O)Nc1ccc(Br)cc1)c1ccc(C(F)(F)F)cc1 [1j] | 2 (≈ 0.997 µg/mL) | 2 (≈ 0.997 µg/mL) | 2 (≈ 0.997 µg/mL) | 4 (≈ 1.99 µg/mL) | 4 (≈ 1.99 µg/mL) | 2 (≈ 0.997 µg/mL) | 2 (≈ 0.997 µg/mL) | 2 (≈ 0.997 µg/mL) | 2 (≈ 0.997 µg/mL) | 8 (≈ 3.99 µg/mL) | 8 (≈ 3.99 µg/mL) | < 1 | 2 (≈ 0.997 µg/mL) | 4 (≈ 1.99 µg/mL) | – | 2 (≈ 0.997 µg/mL) | 2 (≈ 0.997 µg/mL) | 1 (≈ 0.499 µg/mL) | 2 (≈ 0.997 µg/mL) | –
O=C(Oc1ccc(Cl)cc1C(=O)Nc1ccc(C(F)(F)F)cc1)c1ccc(C(F)(F)F)cc1 [1o, 4-chloro-2-[4-(trifluoromethyl)phenylcarbamoyl]phenyl 4-(trifluoromethyl)benzoate] | 1 (≈ 0.488 µg/mL) | 1 (≈ 0.488 µg/mL) | 1 (≈ 0.488 µg/mL) | 2 (≈ 0.976 µg/mL) | 2 (≈ 0.976 µg/mL) | 0.5 (≈ 0.244 µg/mL) | 0.5 (≈ 0.244 µg/mL) | 0.5 (≈ 0.244 µg/mL) | 1 (≈ 0.488 µg/mL) | 1 (≈ 0.488 µg/mL) | 4 (≈ 1.95 µg/mL) | – | 1 (≈ 0.488 µg/mL) | 1 (≈ 0.488 µg/mL) | 1 (≈ 0.488 µg/mL) | 1 (≈ 0.488 µg/mL) | 1 (≈ 0.488 µg/mL) | 0.5 (≈ 0.244 µg/mL) | 1 (≈ 0.488 µg/mL) | 1 to 4 (≈ 0.488 to 1.95 µg/mL)
